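Values below derive from 48-hour exposures of cells grown in 96-well plates, with endpoints linearly interpolated between the two concentrations bracketing the appropriate inhibition level. GI50 marks 50% less growth. The concentration for full growth arrest is given as TGI.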
Key:
Experiment in all cases: NCI tumour cell line growth inhibition, 48 h
[1] = test system: MCF7 breast
[2] = test system: BT-549 breast
[3] = test system: MOLT-4 leukemia
[4] = test system: SR leukemia
[5] = test system: MALME-3M melanoma
[6] = test system: MDA-MB-435
[7] = test system: SN12C renal
[8] = test system: OVCAR-8 ovarian
[9] = test system: NCI-H460 lung
[10] = test system: HS 578T breast
[11] = test system: UACC-257 melanoma
[12] = test system: LOX IMVI melanoma
[13] = test system: TK-10 renal
[14] = test system: SNB-75 CNS
[15] = test system: SK-MEL-5 melanoma
[16] = test system: OVCAR-3 ovarian
[17] = test system: EKVX NSCLC
[18] = test system: HOP-62 NSCLC
[19] = test system: MDA-MB-231 breast
[20] = test system: COLO 205 colon
[21] = test system: HCC-2998 colon
[22] = test system: K-562 leukemia
[23] = test system: DU-145 prostate
[24] = test system: CAKI-1 renal
[25] = test system: M14 melanoma
[26] = test system: HT29 colon
[27] = test system: SF-295 CNS
[28] = test system: U251 CNS
[29] = test system: SW-620 colon
[30] = test system: SF-268 CNS
[31] = test system: SK-MEL-2 melanoma
[32] = test system: NCI-H226 lung
[33] = test system: UACC-62 melanoma
[34] = test system: HCT-116 colon
[35] = test system: RXF 393 renal
[36] = test system: NCI-H23 lung
[37] = test system: SF-539 CNS
[38] = test system: RPMI-8226 leukemia
[39] = test system: HCT-15 colon
[40] = test system: SK-OV-3 ovarian
[41] = test system: SNB-19 CNS
[42] = test system: NCI-H522 lung
[43] = test system: CCRF-CEM leukemia
[44] = test system: ACHN renal
[45] = test system: NCI/ADR-RES ovarian
[46] = test system: 786-0 renal
[47] = test system: SK-MEL-28 melanoma
[48] = test system: HL-60(TB) leukemia
[49] = test system: OVCAR-4 ovarian
[50] = test system: IGROV1 ovarian
[51] = test system: HOP-92 NSCLC
[52] = test system: OVCAR-5 ovarian
[53] = test system: UO-31 renal
[54] = test system: A498 renal
[55] = test system: T-47D breast
[56] = test system: PC-3 prostate
[57] = test system: KM12 colon
[58] = test system: A549 NSCLC
[59] = test system: MDA-N

SMILES: CCOc1ccn(-c2ccc(F)cc2)c(=O)c1C(=O)Nc1ccc(Oc2ccnc(N)c2Cl)c(F)c1
- GI50 [1]: 7.89 µM
- TGI [1]: > 100 µM
- GI50 [2]: 13.8 µM
- TGI [2]: 59.2 µM
- GI50 [3]: 5.78 µM
- TGI [3]: 59 µM
- GI50 [4]: 6.17 µM
- TGI [4]: 28.7 µM
- GI50 [5]: 7.72 µM
- TGI [5]: 46.4 µM
- GI50 [6]: 6.27 µM
- TGI [6]: 42.6 µM
- GI50 [7]: 5.03 µM
- TGI [7]: > 100 µM
- GI50 [8]: 15.2 µM
- TGI [8]: > 100 µM
- GI50 [9]: 4.74 µM
- TGI [9]: > 87 µM
- GI50 [10]: 3.7 µM
- TGI [10]: 30.6 µM
- GI50 [11]: 5.99 µM
- TGI [11]: 43.4 µM
- GI50 [12]: 5.33 µM
- TGI [12]: 19.3 µM
- GI50 [13]: 15.1 µM
- TGI [13]: 55.2 µM
- GI50 [14]: 2390 nM
- TGI [14]: 22.5 µM
- GI50 [15]: 9.99 µM
- TGI [15]: 25.5 µM
- GI50 [16]: 24.3 µM
- TGI [16]: > 100 µM
- GI50 [17]: 31.3 µM
- TGI [17]: > 100 µM
- GI50 [18]: 13.2 µM
- TGI [18]: > 100 µM
- GI50 [19]: 6.33 µM
- TGI [19]: 23.9 µM
- GI50 [20]: 2540 nM
- TGI [20]: 5.57 µM
- GI50 [21]: 38.5 µM
- TGI [21]: > 100 µM
- GI50 [22]: 4.42 µM
- TGI [22]: > 100 µM
- GI50 [23]: 21.1 µM
- TGI [23]: > 100 µM
- GI50 [24]: 7.57 µM
- TGI [24]: 56.4 µM
- GI50 [25]: 3.74 µM
- TGI [25]: 16 µM
- GI50 [26]: 6.63 µM
- TGI [26]: 82.3 µM
- GI50 [27]: 787 nM
- TGI [27]: 48.3 µM
- GI50 [28]: 26 µM
- TGI [28]: > 100 µM
- GI50 [29]: 5.01 µM
- TGI [29]: 38.4 µM
- GI50 [30]: 10.9 µM
- TGI [30]: > 100 µM
- GI50 [31]: 14 µM
- TGI [31]: 35.7 µM
- GI50 [32]: 10.6 µM
- TGI [32]: > 96.1 µM
- GI50 [33]: 2830 nM
- TGI [33]: 18.5 µM
- GI50 [34]: 5.35 µM
- TGI [34]: 21.8 µM
- GI50 [35]: 7.06 µM
- TGI [35]: 36.8 µM
- GI50 [36]: 10.4 µM
- TGI [36]: > 100 µM
- GI50 [37]: 7.53 µM
- TGI [37]: 34.1 µM
- GI50 [38]: 14.6 µM
- TGI [38]: > 88.8 µM
- GI50 [39]: 10.6 µM
- TGI [39]: > 79.6 µM
- GI50 [40]: 11.7 µM
- TGI [40]: 41.6 µM
- GI50 [41]: 27.8 µM
- TGI [41]: > 100 µM
- GI50 [42]: 12.3 µM
- TGI [42]: 69.5 µM
- GI50 [43]: 3.63 µM
- TGI [43]: 36.9 µM
- GI50 [44]: 9.22 µM
- TGI [44]: > 89.1 µM
- GI50 [45]: 13.6 µM
- TGI [45]: > 65.7 µM
- GI50 [46]: 19 µM
- TGI [46]: > 100 µM
- GI50 [47]: 6.7 µM
- TGI [47]: 59.1 µM
- GI50 [48]: 15.3 µM
- TGI [48]: 38.6 µM
- GI50 [49]: 19.1 µM
- TGI [49]: > 100 µM
- GI50 [50]: 17.3 µM
- TGI [50]: > 100 µM
- GI50 [51]: 801 nM
- TGI [51]: 12.3 µM
- GI50 [52]: 12.9 µM
- TGI [52]: 67 µM
- GI50 [53]: 8.99 µM
- TGI [53]: 63.4 µM
- GI50 [54]: 1600 nM
- TGI [54]: 12.2 µM
- GI50 [55]: 11.8 µM
- TGI [55]: 98 µM
- GI50 [56]: 9.02 µM
- TGI [56]: > 100 µM
- GI50 [57]: 404 nM
- TGI [57]: > 100 µM
- GI50 [58]: 9.12 µM
- TGI [58]: 86.2 µM

SMILES: C=CCc1c(O)c2nsnc2c2nsnc12
- TGI [1]: > 10 µM
- TGI [3]: > 10 µM
- TGI [4]: > 10 µM
- TGI [5]: > 10 µM
- TGI [7]: > 10 µM
- TGI [8]: > 10 µM
- TGI [11]: > 10 µM
- TGI [12]: > 10 µM
- TGI [13]: > 10 µM
- TGI [14]: > 10 µM
- TGI [15]: > 10 µM
- TGI [17]: > 10 µM
- TGI [18]: > 10 µM
- TGI [19]: > 10 µM
- TGI [20]: > 10 µM
- TGI [21]: > 10 µM
- TGI [22]: > 10 µM
- TGI [23]: > 10 µM
- TGI [24]: > 10 µM
- TGI [25]: > 10 µM
- TGI [26]: > 10 µM
- TGI [27]: > 10 µM
- TGI [29]: > 10 µM
- TGI [30]: > 10 µM
- TGI [59]: > 10 µM
- TGI [33]: > 10 µM
- TGI [35]: > 10 µM
- TGI [36]: > 10 µM
- TGI [38]: > 10 µM
- TGI [39]: > 10 µM
- TGI [40]: > 10 µM
- TGI [43]: > 10 µM
- TGI [46]: > 10 µM
- TGI [47]: > 10 µM
- TGI [48]: > 10 µM
- TGI [50]: > 10 µM
- TGI [55]: > 10 µM
- TGI [56]: > 10 µM
- TGI [57]: > 10 µM
- TGI [58]: > 10 µM

SMILES: Nc1ncnc2c1ncn2C1CCC(CP(=O)(O)O)C1 (centres undefined)
- TGI [1]: > 100 µM
- TGI [5]: > 100 µM
- TGI [6]: > 100 µM
- TGI [7]: > 100 µM
- TGI [8]: > 100 µM
- TGI [9]: > 100 µM
- TGI [10]: > 100 µM
- TGI [11]: > 100 µM
- TGI [12]: > 100 µM
- TGI [13]: > 100 µM
- TGI [15]: > 100 µM
- TGI [16]: > 100 µM
- TGI [17]: > 100 µM
- TGI [18]: > 100 µM
- TGI [19]: > 100 µM
- TGI [20]: > 100 µM
- TGI [21]: > 100 µM
- TGI [23]: > 100 µM
- TGI [25]: > 100 µM
- TGI [26]: > 100 µM
- TGI [27]: > 100 µM
- TGI [28]: > 100 µM
- TGI [29]: > 100 µM
- TGI [30]: > 100 µM
- TGI [31]: > 100 µM
- TGI [59]: > 100 µM
- TGI [32]: > 100 µM
- TGI [33]: > 100 µM
- TGI [34]: > 100 µM
- TGI [35]: > 100 µM
- TGI [36]: > 100 µM
- TGI [37]: > 100 µM
- TGI [38]: > 100 µM
- TGI [39]: > 100 µM
- TGI [40]: > 100 µM
- TGI [41]: > 100 µM
- TGI [44]: > 100 µM
- TGI [45]: > 100 µM
- TGI [46]: > 100 µM
- TGI [47]: > 100 µM
- TGI [48]: > 100 µM
- TGI [49]: > 100 µM
- TGI [50]: > 100 µM
- TGI [52]: > 100 µM
- TGI [53]: > 100 µM
- TGI [55]: > 100 µM
- TGI [56]: > 100 µM
- TGI [57]: > 100 µM
- TGI [58]: > 100 µM

SMILES: Cc1c(CCCl)c(N=P(c2ccccc2)(c2ccccc2)c2ccccc2)n2c(nc3ccccc32)c1C#N
- TGI [1]: > 10 µM
- TGI [3]: > 10 µM
- TGI [4]: > 10 µM
- TGI [5]: > 10 µM
- TGI [7]: > 10 µM
- TGI [8]: > 10 µM
- TGI [11]: > 10 µM
- TGI [12]: > 10 µM
- TGI [13]: > 10 µM
- TGI [14]: > 10 µM
- TGI [15]: > 10 µM
- TGI [17]: > 10 µM
- TGI [18]: > 10 µM
- TGI [19]: > 10 µM
- TGI [20]: > 10 µM
- TGI [21]: > 10 µM
- TGI [22]: > 10 µM
- TGI [23]: > 10 µM
- TGI [24]: > 10 µM
- TGI [25]: > 10 µM
- TGI [26]: > 10 µM
- TGI [27]: > 10 µM
- TGI [29]: > 10 µM
- TGI [30]: > 10 µM
- TGI [59]: > 10 µM
- TGI [33]: > 10 µM
- TGI [35]: > 10 µM
- TGI [36]: > 10 µM
- TGI [38]: > 10 µM
- TGI [39]: > 10 µM
- TGI [40]: > 10 µM
- TGI [43]: > 10 µM
- TGI [46]: > 10 µM
- TGI [47]: > 10 µM
- TGI [50]: > 10 µM
- TGI [55]: > 10 µM
- TGI [56]: > 10 µM
- TGI [57]: > 10 µM
- TGI [58]: > 10 µM
